How the values were obtained:
Assay type in all cases: functional
[1] = tested on: SF-268; experiment: Cytotoxicity against Homo sapiens (human) SF268 cells after 48 hr by SRB assay; conditions: SF-268, 48 h
[2] = tested on: SW-620; experiment: Cytotoxicity against Homo sapiens (human) SW620 cells after 48 hr by SRB assay; conditions: SW-620, 48 h
[3] = tested on: NCI-H460; experiment: Cytotoxicity against Homo sapiens (human) NCI-H460 cells after 48 hr by SRB assay; conditions: NCI-H460, 48 h
[4] = tested on: 786-0; experiment: Cytotoxicity against Homo sapiens (human) 786-0 cells after 48 hr by SRB assay; conditions: 786-0, 48 h
[5] = tested on: BT-549; experiment: Cytotoxicity against Homo sapiens (human) BT549 cells after 48 hr by SRB assay; conditions: BT-549, 48 h
[6] = tested on: MCF7; experiment: Cytotoxicity against Homo sapiens (human) MCF7 cells assessed as cellular growth after 48 hr by Alamar blue assay; parameters: concentration or dose not given beside the values
[7] = tested on: SK-MEL-2; experiment: Cytotoxicity against Homo sapiens (human) SK-MEL-2 cells after 48 hr by SRB assay; conditions: SK-MEL-2, 48 h
[8] = Cytotoxicity against Homo sapiens (human) CNS cancer cells after 48 hr by SRB assay; conditions: Cancer cell lines
[9] = tested on: KM12; experiment: Cytotoxicity against Homo sapiens (human) KM12 cells after 48 hr by SRB assay; conditions: KM12, 48 h
[10] = tested on: DU-145; experiment: Cytotoxicity against Homo sapiens (human) DU145 cells after 48 hr by SRB assay; conditions: DU-145, 48 h
[11] = tested on: SN12C; experiment: Cytotoxicity against Homo sapiens (human) SN12C cells after 48 hr by SRB assay
[12] = tested on: T47D; experiment: Cytotoxicity against Homo sapiens (human) T47D cells after 48 hr by SRB assay
[13] = tested on: UACC-257; experiment: Cytotoxicity against Homo sapiens (human) UACC257 cells after 48 hr by SRB assay; conditions: UACC-257, 48 h
[14] = tested on: UO-31; experiment: Cytotoxicity against Homo sapiens (human) UO31 cells after 48 hr by SRB assay; conditions: UO-31, 48 h
[15] = tested on: SK-OV-3; experiment: Cytotoxicity against Homo sapiens (human) SKOV3 cells after 48 hr by SRB assay; conditions: SK-OV-3, 48 h
[16] = tested on: OVCAR-8; experiment: Cytotoxicity against Homo sapiens (human) OVCAR8 cells after 48 hr by SRB assay; conditions: OVCAR-8, 48 h
[17] = tested on: UACC-62; experiment: Cytotoxicity against Homo sapiens (human) UACC62 cells after 48 hr by SRB assay; conditions: UACC-62, 48 h
[18] = tested on: SNB-19; experiment: Cytotoxicity against Homo sapiens (human) SNB19 cells after 48 hr by SRB assay; conditions: SNB-19, 48 h
[19] = tested on: SK-MEL-28; experiment: Cytotoxicity against Homo sapiens (human) SK-MEL-28 cells after 48 hr by SRB assay; conditions: SK-MEL-28, 48 h
[20] = tested on: Hs-578T; experiment: Cytotoxicity against Homo sapiens (human) Hs578T cells after 48 hr by SRB assay
[21] = tested on: SF-268; experiment: Cytotoxicity against Homo sapiens (human) SF268 cells assessed as cellular growth after 48 hr by Alamar blue assay; parameters: concentration or dose not given beside the values
[22] = tested on: CAKI-1; experiment: Cytotoxicity against Homo sapiens (human) Caki1 cells after 48 hr by SRB assay; conditions: CAKI-1, 48 h
[23] = Cytotoxicity against Homo sapiens (human) breast cancer cells after 48 hr by SRB assay; conditions: Cancer cell lines
[24] = Cytotoxicity against Homo sapiens (human) leukemia cells after 48 hr by SRB assay; conditions: Leukemia cell
[25] = Cytotoxicity against Homo sapiens (human) renal cancer cells after 48 hr by SRB assay; conditions: Cancer cell lines
[26] = tested on: OVCAR-4; experiment: Cytotoxicity against Homo sapiens (human) OVCAR4 cells after 48 hr by SRB assay; conditions: OVCAR-4, 48 h
[27] = tested on: ACHN; experiment: Cytotoxicity against Homo sapiens (human) ACHN cells after 48 hr by SRB assay
[28] = tested on: HCT-15; experiment: Cytotoxicity against Homo sapiens (human) HCT15 cells after 48 hr by SRB assay; conditions: HCT-15, 48 h
[29] = tested on: NCI-H522; experiment: Cytotoxicity against Homo sapiens (human) NCI-H522 cells after 48 hr by SRB assay; conditions: NCI-H522, 48 h
[30] = tested on: NCI-H460; experiment: Cytotoxicity against Homo sapiens (human) NCI-H460 cells assessed as cellular growth after 48 hr by Alamar blue assay; parameters: concentration or dose not given beside the values
[31] = tested on: CCRF-CEM; experiment: Cytotoxicity against Homo sapiens (human) CCRF-CEM cells after 48 hr by SRB assay
[32] = tested on: OVCAR-5; experiment: Cytotoxicity against Homo sapiens (human) OVCAR5 cells after 48 hr by SRB assay; conditions: OVCAR-5, 48 h
[33] = tested on: MDA-MB-435; experiment: Cytotoxicity against Homo sapiens (human) MDA-MB-435 cells after 48 hr by SRB assay; conditions: MDA-MB-435, 48 h
[34] = Cytotoxicity against Homo sapiens (human) melanoma cells after 48 hr by SRB assay; conditions: Melanoma cell
[35] = tested on: SF-539; experiment: Cytotoxicity against Homo sapiens (human) SF539 cells after 48 hr by SRB assay; conditions: SF-539, 48 h
[36] = tested on: HT-29; experiment: Cytotoxicity against Homo sapiens (human) HT-29 cells after 48 hr by SRB assay; conditions: HT-29, 48 h
[37] = tested on: RXF 393; experiment: Cytotoxicity against Homo sapiens (human) RXF393 cells after 48 hr by SRB assay; conditions: RXF 393, 48 h
[38] = tested on: MCF7; experiment: Cytotoxicity against Homo sapiens (human) MCF7 cells after 48 hr by SRB assay; conditions: MCF7, 48 h
[39] = tested on: SF-295; experiment: Cytotoxicity against Homo sapiens (human) SF295 cells after 48 hr by SRB assay; conditions: SF-295, 48 h
[40] = tested on: HOP-62; experiment: Cytotoxicity against Homo sapiens (human) HOP62 cells after 48 hr by SRB assay; conditions: HOP-62, 48 h
[41] = tested on: EKVX; experiment: Cytotoxicity against Homo sapiens (human) EKVX cells after 48 hr by SRB assay
[42] = tested on: COLO 205; experiment: Cytotoxicity against Homo sapiens (human) COLO205 cells after 48 hr by SRB assay; conditions: COLO 205, 48 h
[43] = Cytotoxicity against Homo sapiens (human) NCI-H322 cells after 48 hr by SRB assay; conditions: NCI-H322, 48 h
[44] = Cytotoxicity against Homo sapiens (human) NCI-ADR-RES cells after 48 hr by SRB assay
[45] = tested on: RPMI-8226; experiment: Cytotoxicity against Homo sapiens (human) RPMI8226 cells after 48 hr by SRB assay; conditions: RPMI-8226, 48 h
[46] = Cytotoxicity against Homo sapiens (human) ovarian cancer cells after 48 hr by SRB assay; conditions: Cancer cell lines
[47] = tested on: HOP-92; experiment: Cytotoxicity against Homo sapiens (human) HOP92 cells after 48 hr by SRB assay; conditions: HOP-92, 48 h

`NS(=O)(=O)c1ccc(-n2nc3c(c2-c2cccs2)Cc2ccccc2-3)cc1` gave a GI50 [1] of over 100 µM, a GI50 [2] of 10.7 µM and a GI50 [3] of over 100 µM. For the same compound, the GI50 [4] was 17.1 µM, the GI50 [5] was 12.4 µM and the Activity [6] was “<=32%”. For the same compound, the GI50 [7] was 27.6 µM, the GI50 [8] was 31.8 µM and the TGI [8] was 42 µM. The GI50 [9] was 13.5 µM, the GI50 [10] was 24.1 µM and the GI50 [11] was 12.2 µM. The GI50 [12] was 12.8 µM, the GI50 [13] was 23.2 µM and the GI50 [14] was 12.2 µM. For the same compound, the GI50 [15] was 37.7 µM, the GI50 [16] was 20.5 µM and the GI50 [17] was 11.5 µM. It also gave a GI50 [18] of 18.1 µM, a GI50 [19] of 25.8 µM and a GI50 [20] of 16.1 µM. The Activity [21] was “<=32%”, the GI50 [22] was 10.1 µM and the GI50 [23] was 26.1 µM. For the same compound, the TGI [23] was 34.7 µM, the GI50 [24] was 3.3 µM and the TGI [24] was 15.7 µM. For the same compound, the GI50 [25] was 13.3 µM, the TGI [25] was 29.7 µM and the GI50 [26] was 29.9 µM. For the same compound, the GI50 [27] was 11.7 µM, the GI50 [28] was 12 µM and the GI50 [29] was 12.4 µM. The Activity [30] was “<=32%”, the GI50 [31] was 4.24 µM and the GI50 [32] was 18.5 µM. For the same compound, the GI50 [33] was 11.8 µM, the GI50 [34] was 17.5 µM and the TGI [34] was 38.9 µM. The GI50 [35] was 21.1 µM, the GI50 [36] was 22.9 µM and the GI50 [37] was 17.4 µM. For the same compound, the GI50 [38] was over 100 µM, the GI50 [39] was 13.8 µM and the GI50 [40] was 16.5 µM. For the same compound, the GI50 [41] was 11.9 µM, the GI50 [42] was 25.3 µM and the GI50 [43] was 11.9 µM. For the same compound, the GI50 [44] was 12.4 µM, the GI50 [45] was 6.68 µM and the GI50 [46] was 20.6 µM. For the same compound, the TGI [46] was 37.3 µM and the GI50 [47] was 5.56 µM.
